Results from article PMC8141534 (The Journal of Biological Chemistry, 2021).
Ends that are not written are not given here.

Columns and labels:
P167L Rho [1] = target: T1, P167L Rho (Escherichia coli, UniProt P0AG30, P167L); test: biochemical; type: binding
Mycobacterium bovis BCG = type: cell-based
[2] = tested on: Mycobacterium smegmatis mc^2155; type: cell-based
E. coli Rho [3] = test: single round in vitro Rho-dependent transcription termination, T7A1-trpt′ template; type: biochemical, Escherichia coli; conditions: no Rho
CD spectrometry = type: physicochemical; conditions: 10 mM 2-(N-morpholino)ethanesulfonic acid pH 5.5, 190 to 270 nm, 25 °C
E134K Rho mutant = type: cell-based, Escherichia coli; conditions: IPTG induction
isolated Rho–NTD monomer = test: interaction with isolated Rho-NTD monomer; type: binding, Escherichia coli; conditions: data not shown
E. coli Rho [4] = test: Rho-mediated RNA release from stalled (roadblocked) elongation complex; type: biochemical, Escherichia coli; conditions: for inhibition of Rho-induced RNA release from stalled EC (in words): Fig. 3E; for inhibition of Rho-induced RNA release from stalled EC (in words) / Frac. of RNA released (%): Fig. S4B
WT Rho [5] = target: T2, WT Rho (Escherichia coli, UniProt P0AG30); type: biochemical
MG1655 gene expression = type: cell-based, Escherichia coli; conditions: qRT-PCR, relative to empty vector
[6] = tested on: Rho mutants, R144E, R146E, and E148R; type: cell-based, Escherichia coli; conditions: 0 and 100 μM IPTG
[7] = tested on: Rho proteins from pathogenic bacteria; type: biochemical; conditions: 35 μM peptide 33, 50 nM Rho, E. coli RNAP stalled EC, trpt′
[8] = tested on: Rho-dependent termination (trpt′ and trac terminators, lacZ reporter); type: cell-based, Escherichia coli
[9] = tested on: Rho mutants, R66G and Y80C; type: cell-based, Escherichia coli; conditions: 50 μM IPTG
E. coli MG1655 = type: cell-based, Escherichia coli; conditions: MG1655, pNL150, IPTG induction (100 μM), LB, 37 °C, 6 h; three independent colonies
[10] = pH 5.5
E134K Rho = E134K Rho (Escherichia coli, UniProt P0AG30, E134K); type: biochemical; conditions: E134K Rho + peptide; λTR1 RNA; exponential decay fit; two to three measurements
[11] = tested on: Rho-dependent termination (galEP3 reporter); test: in vivo Rho-dependent termination, galEP3 reporter, MacConkey-galactose plates; type: cell-based, Escherichia coli; conditions: MC4100 galEP3, MacConkey-galactose plates, overexpression
E. coli Rho [12] = type: biochemical, Escherichia coli
E. coli Rho [13] = conditions: cited from earlier work
pathogenic Rho proteins = conditions: ref [13]; cited from earlier work
E. coli Rho [14] = conditions: compared with peptide 33; ref [9]; cited from earlier work
Source text: Next, we assayed the peptide-mediated inhibition of the in vitro transcription termination functions of the Rho. We used a linear DNA template where a trpt′ terminator is fused downstream of a strong T7A1 promoter. On this template, efficient transcription termination over a terminator zone is usually observed in the presence of Rho (Fig. 3D; ([16])). The amount of run-off transcripts at the end of this template gives the measure of Rho inhibition by the peptides. We observed that the amount of ...

[15] = tested on: Rho-dependent termination (trac and trpt′ lacZ fusions); type: cell-based, Escherichia coli; conditions: qRT-PCR, 2−ΔΔCt relative to empty vector; 100 μM IPTG (20 μM for Psu); at least three biological replicates
WT Rho [16] = target: T2, WT Rho; conditions: earlier work; ref [11]; cited from earlier work
[17] = tested on: Rho point mutants, R144E, R146E, and, E148R; conditions: cited from earlier work
P167L Rho [18] = target: T1, P167L Rho; type: binding; conditions: Rho:ligand in μg: 1:6 (peptide 16), 1:4 (peptide 33), 1:3 (Psu); 1 mM ATP, pH 8.0, 37 °C, 20 min; SD of two or three measurements
P167L Rho [19] = target: T1, P167L Rho; conditions: ref [11]; cited from earlier work
[20] = Rho + NusG-CTD (5 μM) + ATP, average of three experiments ± SD, Fig. 6A
[21] = Rho + Poly dC34 (10 μM) + ATP, average of three experiments ± SD, Fig. 6A
[22] = Rho + PolyC (2 mM Poly(rC)), average of three experiments ± SD, Fig. 6A
[23] = Rho + ATP, average of three experiments ± SD, Fig. 6A
[24] = Rho bound to the single-stranded DNA and RNA

## MHHHHHHTPAQFIFFRVKVRNWHTSVSVKAWLFWRMREDFQPDTD [peptide 33]
P167L Rho [1]; ITC, 1 μM Rho P167L, 50 μM peptide, 1 mM ATP, pH 8.0, 25 °C, average of three experiments ± SD, Fig. 4B
  Kd: 16.6 ± 3 nM
P167L Rho [1]; P167L Rho, ITC
  Kd: 17 nM
P167L Rho [1]; [20]
  Kd: 26.5 ± 0.3 nM
  n: 3.1 ± 0.1
  ΔG: -10.3 ± 0.02 kcal/mol
  ΔH: -26 ± 3 kcal/mol
  ΔS: -52 ± 10 cal/mol.K
P167L Rho [1]; [21]
  Kd: 255 ± 100 nM
  n: 1.9 ± 0.3
  ΔG: -9.1 ± 0.3 kcal/mol
  ΔH: -23.7 ± 4 kcal/mol
  ΔS: -49.00 ± 13 cal/mol.K
P167L Rho [1]; [22]
  Kd: 164 ± 48 nM
  n: 2.9 ± 0.1
  ΔG: -9.3 ± 0.2 kcal/mol
  ΔH: -27.1 ± 3.5 kcal/mol
  ΔS: -59.6 ± 12.3 cal/mol.K
P167L Rho [1]; [23]
  n: 3.75 ± 0.2
  ΔG: -11 ± 0.1 kcal/mol
  ΔH: -28 ± 0.9 kcal/mol
  ΔS: -57 ± 3 cal/mol.K
P167L Rho [1]; [24]
  binding stoichiometry (in words): also reduced
  thermodynamic parameters (in words): not changed significantly
P167L Rho [1]; in the presence of NusG CTD
  affinity for Rho (in words): not affected significantly
P167L Rho [1]; in the presence of polyC
  reduction of affinity for Rho: 10 fold
P167L Rho [1]; in the presence of polydC34
  reduction of affinity for Rho: 15 fold
Mycobacterium bovis BCG
  growth phenotype upon streaking (in words): very sick phenotype
[2]
  growth phenotype upon streaking (in words): very sick phenotype
  transformants obtained (in words): fewer colonies than those obtained from the transformation with the empty vector
E. coli Rho [3]
  effect on transcription when Rho was absent (in words): did not have any effect on transcription when Rho was absent
CD spectrometry
  secondary structure by CD (in words): predominantly α-helical
E134K Rho mutant
  effect on growth of E134K Rho compared with WT (in words): less severe effect on the growth of the E134K Rho than its WT counterpart
Isolated Rho–NTD monomer
  interaction with isolated Rho-NTD monomer (in words): unable to interact with an isolated Rho–NTD monomer
E. coli Rho [4]
  inhibition of Rho-induced RNA release from stalled EC (in words): significantly inhibited
E. coli Rho [4]; listed as Peptide 33
  inhibition of Rho-induced RNA release from stalled EC (in words): exerted its action at a lower concentration than peptide 16
E. coli Rho [4]; in general, varied between different lots
  concentration for maximal effects: ≥ 50 µM
E. coli Rho [4]; peptide 25, Rho 50 nM
  Frac. of RNA released (%): 31± 0.4%
E. coli Rho [4]; peptide 35, Rho 50 nM
  Frac. of RNA released (%): 16 ± 0.4%
E. coli Rho [4]; peptide 50, Rho 50 nM
  Frac. of RNA released (%): 13 ± 0.4%
WT Rho [5]; WT Rho
  reduction of rate of ATP hydrolysis: ~5.5 fold
WT Rho [5]; WT Rho + peptide, λTR1 RNA, exponential decay fit, two to three measurements
  λ (average rate of ATP hydrolysis): 0.009 min⁻¹
MG1655 gene expression
  upregulation of tested genes (in words): higher level of upregulation of these genes than that when its CTDΔ8 derivative was expressed
[6]
  peptide-induced growth defect with Rho mutants (in words): could not prevent the peptide-induced growth defect
[7]
  inhibition of RNA release by pathogenic Rho proteins (in words): could inhibit the termination process by all the different Rho proteins
[8]; Fig. 3
  in vivo antitermination / Rho inhibitory properties (in words): strong in vivo antitermination of Rho-dependent termination
[9]
  effect on growth of Rho mutants compared with WT (in words): very severe
E. coli MG1655
  growth defect upon expression (in words): severe growth defects
[10]
  solubility at mildly acidic pH (in words): properly soluble at a mildly acidic pH
E134K Rho
  λ (average rate of ATP hydrolysis): 0.0155 min⁻¹
[11]
  colour of colonies, galEP3 reporter (in words): appearance of red colonies
E. coli Rho [12]
  inhibition of ATPase activity of E. coli Rho (in words): more efficient than peptide 16 in inhibiting this Rho function

B1: Psu: bacteriophage P4 capsid protein, natural Rho antagonist, ∼42-kDa dimer (protein)
chain: MESTALQQAFDTCQNNKAAWLQRKNELAAAEQEYLRLLSGEGRNVSRLDELRNIIEVRKWQVNQAAGRYIRSHEAVQHISIRDRLNDFMQQHGTALAAALAPELMGYSELTAIARNCAIQRATDALREALLSWLAKGEKINYSAQDSDILTTIGFRPDVASVDDSREKFTPAQNMIFSRKSAQLASRQSV
Mycobacterium bovis BCG
  growth phenotype upon streaking (in words): very sick phenotype
E. coli Rho [13]
  rate of RNA-dependent ATP hydrolysis of Rho (in words): reduced the rate of RNA-dependent ATP hydrolysis
[2]
  growth phenotype upon streaking (in words): very sick phenotype
  transformants obtained (in words): fewer colonies than those obtained from the transformation with the empty vector
Pathogenic Rho proteins
  inhibition of ATP hydrolysis of Salmonella and Vibrio Rho with poly(C) RNA (in words): too fast to be inhibited by Psu
E. coli Rho [14]
  in vitro Rho inhibition in termination assay (in words): A similar level of in vitro Rho inhibition
E. coli Rho [4]
  inhibition of Rho-induced RNA release from stalled EC (in words): significantly inhibited
E. coli Rho [4]; Psu 5.0, Rho 50 nM
  Frac. of RNA released (%): 12 ± 0.4%
[15]
  enhancement of expression of Plac-trac-lacZ fusion: 28 fold
MG1655 gene expression
  upregulation of tested genes (in words): highest level of upregulations of the tested genes
[7]
  inhibition of RNA release by pathogenic Rho proteins (in words): could inhibit the termination process by all the different Rho proteins
[8]; trpt′ and trac, LB-X-gal, induction by 50 μM IPTG
  colour of colonies, lacZ reporter (in words): deep blue colonies
WT Rho [16]
  in vitro stable complex with WT Rho (in words): failed to obtain a stable in vitro Rho–Psu complex with the WT Rho
[17]
  binding of Rho mutants R144E, R146E, E148R (in words): did not bind to Psu
[11]
  colour of colonies, galEP3 reporter (in words): appearance of red colonies
P167L Rho [18]
  Fraction of Rho associated (%): 49 ± 5%
P167L Rho [19]
  in vitro stable complex with P167L Rho (in words): stable complex between Psu and Rho could form if a mutant Rho, P167L, was used
